Experiment: Human HepG2 cell viability assay in 384 well format
Format: toxicity, cell-based
Design: dose 125 nL, time 70.5 hour; cytotoxicity at 70.5 h: concentration not given beside the values
Conditions: HepG2 cells, read-out: Inhibition

Row | SMILES | cytotoxicity at 70.5 h [%]
1 | O=C1NC(c2ccccc2)=N[C@@]12CC[C@@H]1CN(Cc3ccccc3)C[C@@H]12 | 0.309
2 | Cc1noc(C(C)N2CCN(CCN3CCCC3=O)CC2)n1 (stereo not given) | -4.25
3 | Fc1ccc(CNCCn2cccn2)c(F)c1 | 21.2
4 | CO[C@@H]1CN(c2ccccc2)S(=O)(=O)[C@@]12CCN(C(=O)N(C)C)C2 | -5.12
5 | CC(C)n1cnc2c1C(C(=O)NCCO)N(Cc1ccccc1)CC2 (stereo not given) | -8.21
6 | CN1CCN(C2CCN(CCOc3ccc(Cl)cc3)CC2)C1=O | -6.64
7 | CCc1ccc(-c2cn(CCSc3ncn[nH]3)nn2)nc1 | -1.59
8 | O=C(COC1CCCC1)Nc1ncn(CC(=O)N2CCCCCC2)n1 | -8.06
9 | CC(C)NC(=O)C1CN(C(=O)COc2ccccc2)CC12CCOCC2 (stereo not given) | -9.68
10 | O=C(N[C@@H]1CN[C@H]2CCCO[C@H]21)c1cccnc1 | 1.62
11 | CNC(=O)[C@@H]1C[C@@H](NC(=O)CSc2ccccc2)CN1C1CCOCC1 | 14.1
12 | O=C(NCCn1ccc(-c2ccncc2)n1)c1ccncc1 | -2.74
13 | CCC(NC(=O)NCc1cccc(N(C)C)n1)c1ccccc1OC (stereo not given) | -7.5
14 | COc1cccc2cc(CNCc3ccnc(N4CCOCC4)c3)oc12 | 11.7
15 | Cc1ccc(CN2CCc3c(CN4CCCC4)n[nH]c3C2)s1 | -4.44
16 | O=C(NC1CC1)C(c1ccccc1)N1CCN(Cc2ccc(Cl)s2)CC1 (stereo not given) | -3.83
17 | CCc1nc(C)c(C2CC(=O)Nc3c2c(-c2cccnc2)nn3C)[nH]1 (stereo not given) | -5.87
18 | CNC(=O)Cn1ccc2ccc(NC(=O)C(C)C)cc21 | -16.4
19 | CCC1(CO)CCCN(C(=O)c2cc(COc3cccc(F)c3)[nH]n2)C1 (stereo not given) | -3.53
20 | COC(=O)CN1CCCn2nc(CCC(=O)N3CCCC3)cc2C1 | 2.63
21 | Cc1noc(CNC(=O)CN(C)c2nc3ccccc3s2)n1 | -5.76
22 | Cc1nn(C)c(Cl)c1C1CCCN1C(=O)c1cc(C2CC2)on1 (stereo not given) | 3.63
23 | CCCN1CCc2nc(N3CCOCC3)nc(NC(C)C)c2C1 | -8.9

Row | SMILES | cytotoxicity at 70.5 h [%]
24 | CCn1c(C)cc(-c2csc(Cn3ccc(=O)[nH]c3=O)n2)c1C | -4.42
25 | Cc1ccc(-c2noc([C@H](N)CC(C)C)n2)nn1 | 7.92
26 | CNC(=O)c1cccc(CC2COCCN(Cc3ccsc3)C2)n1 (stereo not given) | -6.49
27 | Cc1csc(-c2cccc(NC(=O)N3CCOCC3)c2)n1 | -3.32
28 | Cc1csc(CN(C)C2CCN(c3sccc3C#N)C2=O)n1 (stereo not given) | 16
29 | O=C1[C@@H]2CCN(Cc3ccoc3)C[C@@H]2OCCN1Cc1cccc(F)c1 | -4.35
30 | CCn1ccnc1CN(C)c1cc(OC)ncn1 | -8.04
31 | Cn1cc(C2CCCN2C(=O)Cc2n[nH]c3ccccc23)cn1 (stereo not given) | 40.1
32 | Cc1ccc(NCc2ccccc2C#N)cc1-n1cnnn1 | 0.552
33 | O=C(O)c1cccc(CC2CCN(c3cnccn3)CC2)c1 | -2.92
34 | CCOC(C)C(=O)N1CCCN(Cc2csc(CC)n2)CC1 (stereo not given) | 22.4
35 | COC(=O)C1Cc2nc[nH]c2CN1Cc1ccc(Sc2ncccn2)o1 (stereo not given) | -0.897
36 | CNC(=O)c1ccc(-c2ccccc2)n1C | -9.17
37 | CCCc1cc(=O)n(CC(N)=O)c(-n2nc(C)cc2C)n1 | -4.18
38 | O=C(c1ccc2nncn2c1)N1CCCCC1Cn1cccn1 (stereo not given) | 8.64
39 | CNC(=O)Cn1ccc2ccc(NC(=O)NC(C)C(C)C)cc21 (stereo not given) | -9.08
40 | Cc1nnc(C(C)Nc2cccc(COCCc3ccccc3)c2)o1 (stereo not given) | -8.73
41 | CC(C)c1nnc2n1CCN(CCS(=O)(=O)c1ccccc1)C2 | -2.01
42 | COCC(=O)Nc1ccc2c(c1)CN(C(=O)c1ccco1)CC2 | 23.8
43 | CCN1C[C@H]2CCN(C(=O)NC3CCCC3)CC[C@H]2S1(=O)=O | 12.8
44 | CS(=O)(=O)c1ccc(CNC(=O)N2CCC(C(N)=O)C2)cc1 (stereo not given) | 30
45 | CN1CC2(CCN(C(=O)c3cccnc3)CC2)c2cccc(F)c21 | -0.505
46 | Cc1ccc(-c2cccc(CC3(C(=O)O)CCOCC3)c2)c(C)c1 | -5.38

Row | SMILES | cytotoxicity at 70.5 h [%]
47 | O=C(CN1CCC(c2nnc(C(F)(F)F)o2)CC1)Nc1cccnc1 | -3.9
48 | CCNC(=O)C1CCCN1S(=O)(=O)c1sc(=O)[nH]c1C (stereo not given) | -4.2
49 | CN1CCCCC1c1cncc(Cl)n1 (stereo not given) | -0.934
50 | CCc1ccccc1CNC(=O)CNCC(F)(F)F | -2.89
51 | CCC(C)N(C)CCNC(=O)c1ccccc1OCCOC (stereo not given) | -6.03
52 | Cc1cncnc1C1CCN(CCO)CC1 | -7.32
53 | CC(C)c1csc(C(=O)N2CCCC(Cn3cc(CO)nn3)C2)n1 (stereo not given) | -0.0869
54 | COc1ccc2cccc(CC(=O)NCCc3n[nH]c(=O)[nH]3)c2c1 | -8.41
55 | CN1CSC[C@H]1C(=O)N1CCC(CCc2ccccc2)CC1 | -5.84
56 | O=C(c1ccccc1Cl)N1CC[C@H](O)[C@@H](N2CCOCC2)CC1 | -4.63
57 | COc1ccc(C(=O)NCCN2CCC(c3cccs3)CC2)cc1OC | 0.337
58 | Cc1c(-c2nc(-c3cccc(CN4CCOCC4)c3)no2)cnn1C | -13.7
59 | COCCN1CCC(c2nc3c([nH]2)CC(C)(C)CNC3=O)CC1 | -4.63
60 | Cc1cc(NC(=O)Cn2ccccc2=O)n(C)n1 | -11.7
61 | Cc1cnc(CN2CCCC2c2noc(C3CC3)n2)cn1 (stereo not given) | -6.3
62 | CS(=O)(=O)NCc1nnc2n1CCN(Cc1ccncc1)C2 | 20.1
63 | CCc1nc(C2CCCN(C(=O)CN(C)S(C)(=O)=O)C2)no1 (stereo not given) | 3.45
64 | Cc1cc(CN[C@H](C(N)=O)[C@@H](C)O)c(C)s1 | -3.69
65 | CCC(C(=O)NC1(COC)CCCC1)n1cccn1 (stereo not given) | 5.08
66 | CC(C)CC1SCC(=O)Nc2c1cnn2-c1ccccc1F (stereo not given) | -22.8
67 | NC(=O)C(CNC(=O)COCC(F)(F)F)Cc1ccc(F)cc1 (stereo not given) | -18.2
68 | CN1CCCC(c2nccnc2-c2cccc(Cl)c2)C1 (stereo not given) | -9.62
69 | CCCc1cc(NC2CCN(Cc3ccccn3)CC2)n2nccc2n1 | -4.87

Row | SMILES | cytotoxicity at 70.5 h [%]
70 | CN(CC(=O)NCCC#N)C(c1ccccc1)c1ccc(F)cc1 (stereo not given) | -15.7
71 | CC(C(=O)Nc1ccccc1F)S(C)(=O)=O (stereo not given) | 2.07
72 | O=C1CCC(C(=O)NCc2nncn2-c2ccccc2)CN1 (stereo not given) | -12.6
73 | Cc1ncsc1C(=O)N1CC(C)Sc2ccccc21 (stereo not given) | -8.57
74 | OCCOCc1n[nH]c2c1CN(Cc1cccs1)C2 | -2.23
75 | CC(C)c1cc(C2CCCN2Cc2nc(-c3ccco3)no2)no1 (stereo not given) | -2.57
76 | COCC(C)N(C)C(=O)CCc1c(C)nc2c(C#N)cnn2c1C (stereo not given) | 3.69
77 | CN(C)c1ncc(-c2cccc(C(N)=O)c2)c(C2CNCCO2)n1 (stereo not given) | -1.28
78 | COCC(=O)N1CC[C@@H]2O[C@@H](C)C[C@H]2C1 | -12.2
79 | CN1CCn2c(-c3ccccc3)cnc2C12CCN(CC1CC1)CC2 | -3.45
80 | c1cnn(CC2CCCCN2Cc2noc(C3CC3)n2)c1 (stereo not given) | -6.47
81 | COc1ccccc1CN1CCC(Cc2cnc(CN(C)C)cn2)CC1 | -2.82
82 | Cc1ccccc1OCC(O)CN1CCC(Cn2cccn2)CC1 (stereo not given) | 2.37
83 | O=C(Nc1ccccc1)C1CN(Cc2cccs2)CC12CCOCC2 (stereo not given) | -6.1
84 | Cc1n[nH]c(C)c1CNC(=O)CSCc1ccccc1Cl | -0.888
85 | Cc1nc(-c2noc3ccc(C(=O)NCCN(C)C)cc23)co1 | -7.57
86 | Cc1nn(CCNC(C)Cn2ccnc2)c(C)c1Cl (stereo not given) | -1.29
87 | COc1cccc(C(=O)N2CCCC(C(=O)CCc3ccccc3)C2)c1 (stereo not given) | -0.206
88 | NC(=O)[C@H]1CCCN1C(=O)c1csc(-c2ccc(C(F)(F)F)cc2)n1 | -6.09
89 | CCN(CC)CC(=O)NCCc1csc(N2CCCC2)n1 | -3.59
90 | CC(Nc1cccc(CN2CCOC2=O)c1)C(=O)N1CCNC1=O (stereo not given) | -6.02
91 | O=C1C(NS(=O)(=O)c2ccc(F)cc2F)CCN1Cc1ccccc1 (stereo not given) | -7.99
92 | Cc1ncc(C)c(N2CCC(Cc3ccc(Cl)cc3)(C(=O)O)CC2)n1 | -9.85

Row | SMILES | cytotoxicity at 70.5 h [%]
93 | CCN(C)c1ncnc2c1CCN(Cc1nccs1)CC2 | 6.96
94 | CCC(C(=O)NCCc1ccn(-c2ccccc2)n1)N1CCCC1=O (stereo not given) | -5.95
95 | CCn1nc(C)c2ccn(CC(=O)NCC3CCCO3)c(=O)c21 (stereo not given) | -5.94
96 | O=C(c1cccc(S(=O)(=O)NCCc2cscn2)c1)N1CCOCC1 | -1.05
97 | Cc1cccc(CC(=O)Nc2cnn(C3CCOC3)c2)c1 (stereo not given) | -13.6
98 | Cc1nc(C2CCCN(C(=O)c3cccc4c3OCO4)C2)sc1C (stereo not given) | -2.18
99 | Cc1noc(C)c1-c1cc(CC2CCN(C(=O)c3cc[nH]n3)C2)ncn1 (stereo not given) | -0.894
100 | O=C(NCCc1ccccn1)N1CCOC(c2ccccc2Cl)C1 (stereo not given) | -5.38
101 | Cc1cnn(CC(C)NCc2ccc(OCc3cscn3)cc2)c1 (stereo not given) | -6.24
102 | CSCC(=O)N1CCC2(CC1)c1ccccc1CC2O (stereo not given) | 16.5
103 | CCn1c(CN(C)C)nnc1C1CCN(Cc2ccc(Cl)cc2)CC1 | 0.347
104 | O=C(NCC(O)(c1ccco1)C1CC1)c1c(F)cccc1Cl (stereo not given) | -0.808
105 | CN(C)C(=O)CN1C[C@@H]2CC[C@H](C1)N(Cc1cccc(Cl)c1Cl)C2 | 7.51
106 | COc1ccnc(N2CCN(C(=O)c3cscn3)CC2)n1 | -2.19
107 | Cc1nc(C(=O)N2CCCCC2)nn1-c1ccccc1Cl | -7.71
108 | NC1CCc2c(ccc(=O)n2CC2CC2)C1 (stereo not given) | 27.6
109 | CCn1ccc(C(=O)Nc2ccc3c(c2)C(C)(C)C(=O)N3C)n1 | -15.5
110 | Cc1cccc2c1NC1(CCOCC1)NC2=O | -26.4
111 | c1cc(CN2CC[C@H]3CO[C@H](CN4CCOCC4)[C@H]3C2)cs1 | -11.2
112 | Cc1ccc(-n2ccnc2)c(C(=O)NCCOCC2CCCO2)c1 (stereo not given) | -1.48
113 | O=C(CS(=O)(=O)Cc1ccc(Br)cc1F)Nc1cn[nH]c1 | 4.02
114 | CCC(NC(=O)c1cc(CC(C)C)nn1C)c1cc(C)ccn1 (stereo not given) | -19.2
115 | CCCc1nc(N2CCCN(c3ccncc3)CC2)c2cnn(C)c2n1 | -11.6

From ChEMBL document CHEMBL3507680, “University of Dundee, Gates Library screen for HepG2 cell viability”
